According to US5008283A (Pfizer Inc., priority 1990, dated 1991):

What was measured:
[1] = system: collagenase; assay: Inhibition of release of activated collagenase by IgG-stimulated neutrophils; assay type: cell-based, human; conditions: for inhibitory effect on the release of activated collagenase by neutrophils (in words): as shown in Table I; for Inhibition of Activated Neutrophil Collagenase Release, % Inhibition: human neutrophils on IgG coated wells; for inhibitory effect on the release of activated collagenase (in words): at supraphysiological concentrations for those compounds
Description: (§1) Whole human blood from normal volunteers was obtained by venipuncture into heparinized syringes. The majority of the red cells were removed by dextran sedimentation and neutrophils were separated by density centrifugation over hypaque ficoll. The neutrophil rich fraction was washed and residual red cells were removed by hypotonic lysis according to the procedure described by Blackburn, W.D. et al., Arthritis Rheum. 30:1006-1014 (1987). The neutrophils so prepared were used in the assays described below and cell viability was assured by determining their ability to exclude typan blue. In each assay the cell viability routinely exceeded 95%.
To assay for inhibition of release of activated collagenase by neutrophils,the following assay was performed. Neutrophil cell suspensions were incubated at 37° C. for 15-30 minutes in the presence of varying concentrations of tenidap or other compound under study. Tenidap was dissolved and diluted in water and added to the cells directly therefrom. Other compounds tested were initially dissolved in 0.1M NaOH and then diluted in water prior to addition to the cells. After the cells had been incubated in the presence of tenidap or other compound under study, the cell suspensions (5 × 10^6 cells/ml, 125 μl/well) were added to IgG coated and bovine serum albumin (BSA) blocked wells of microtiter plates and incubated for 45 minutes at 37° C. As controls, similar incubations were performed in the absence of IgG. Following incubation, the cell suspensions were centrifuged (750 × g) for 5 minutes at 4° C. The supernatants were removed and DFP (diisopropylfluorophosphate) was added to a final concentration of 10^-3 M to inactivate serine proteases.
Then, the collagenase activity in the DFP treated supernatants was determined by incubating, in triplicate, 200 μl aliquots of supernatant with ^3 H-labeled reconstituted type-I collagen fibrils in 7 mm flat bottom tissue culture wells (Linbro®, Cat #76-032-05, Flow Laboratories McLean, Va) as described by Johnson-Wint, B., Anal. Biochem. 104:175-181 (1980). The reconstituted fibrils in each well contained 75 μg of a mixture of ^3 H-labeled and unlabeled collagen with an activity of 7,000 cpm. To determine the total radioactivity potentially released from the fibrils in each experiment, the reconstituted fibrils were also incubated with a mixture of clostridial collagenase (250 mg/ml HBSS (Hank's balanced salt solution, GIBCO, Grand Island, N.Y.)). To maximize sensitivity and specificity of the assay, incubations were performed for eighteen hours in triplicate at 37° C. At the end of the incubation period, the supernatants were aspirated from each well and the radioactivity was determined by counting in a liquid scintillation counter. Greater than 99% of the radioactivity applied to each well was recovered from wells incubated with bacterial collagenase. Average counts per minute released by fibrils incubated with buffer (HBSS) alone were subtracted from the cpm measured in each supernatant. The resulting triplicate values for each supernatant were averaged and divided by the average cpm released by the bacterial collagenase to determine the percent fibril lysis produced by each supernatant. The total activated collagen released during the eighteen hour incubation was then calculated and divided by the incubation time to yield values for the collagenase activity (ng collagen degraded/min) in each supernatant.

[2] = system: collagenase; assay: Total collagenase released by IgG-stimulated neutrophils (supernatants activated with mersalyl); assay type: cell-based, human; conditions: supernatants activated with organic mercurial, tenidap concentration not given
Description: as §1
In parallel experiments, release of total collagenase into the supernatants was determined by activating latent collagenase in the supernatants with 1.0 mM mersalyl (Harris, E.D. and Vater, C.A., Methodology of collagenase research: substrate purification, enzyme activation and purification. Collagenase in Normal Pathological Connective Tissues. Edited by D. E. Woolley, J. M. Evanson, Chichester, John Wiley & Sons, 1980) prior to addition of the supernatants to the radiolabeled collagen fibrils. […]

[3] = system: myeloperoxidase; assay: Myeloperoxidase activity assay (ABTS/hydrogen peroxide, absorbance at 412 nm); assay type: biochemical; conditions: myeloperoxidase extracted from human neutrophils; varying concentrations of tenidap; figures not given
Description: as §1
Neutrophils (1.25 × 10^6 /ml, prepared as described above) were incubated for 60 minutes at 37° C. in either BSA or IgG coated tissue culture wells which had been blocked with BSA. Following incubation, the wells were aspirated and the cells were removed by centrifugation. […] Myeloperoxidase activity was then determined by adding 20 μl of the supernatant to 300 μl of 0.2M sodium acetate buffer, pH 4.5, containing 17 mg of 2,2'-azino-di-(3-ethylbenzthiazoline)sulfonic acid and 600 μl of 0.003% hydrogen peroxide. The activity of myeloperoxidase in the supernatant was then determined by the change in absorbance at 412 nm using a spectrophotometer as described by Shindler, J.S. et al., Eur. J. Biochem. 65:325-331 (1976).

## CC(C)Cc1ccc(C(C)C(=O)O)cc1 (stereo not drawn) [Ibuprofen]
[1]
  inhibitory effect on the release of activated collagenase by neutrophils (in words): no inhibitory effect
[1]; peak concentration 175 μM
  Inhibition of Activated Neutrophil Collagenase Release, % Inhibition: 0%

## COc1ccc2c(c1)c(CC(=O)O)c(C)n2C(=O)c1ccc(Cl)cc1 [Indomethacin]
[1]
  inhibitory effect on the release of activated collagenase (in words): some inhibitory effect
[1]; peak concentration 2.5 μM
  Inhibition of Activated Neutrophil Collagenase Release, % Inhibition: 14%

## COc1ccc2cc([C@H](C)C(=O)O)ccc2c1 [Naproxen]
[1]
  inhibitory effect on the release of activated collagenase by neutrophils (in words): no inhibitory effect
[1]; peak concentration 80 μM
  Inhibition of Activated Neutrophil Collagenase Release, % Inhibition: 0%

## CN1C(C(=O)Nc2ccccn2)=C(O)c2ccccc2S1(=O)=O [Piroxicam]
[1]
  inhibitory effect on the release of activated collagenase (in words): some inhibitory effect
[1]; peak concentration 25 μM
  Inhibition of Activated Neutrophil Collagenase Release, % Inhibition: 18%

## NC(=O)N1C(=O)C(C(=O)c2cccs2)c2cc(Cl)ccc21 (stereo not drawn) [Tenidap, 5-chloro-2,3-dihydro-2-oxo-3-(2-thienylcarbonyl)-indole-1-carboxamide]
[2]
  inhibition of the total amount of collagenase released by neutrophils: 22%
[3]
  inhibition of the activity of myeloperoxidase (in words): inhibit the activity of myeloperoxidase
[1]; at clinically relevant concentrations
  inhibition of the release of activated collagenase from neutrophils (in words): significantly inhibited
[1]; peak concentration 87.5 μM
  Inhibition of Activated Neutrophil Collagenase Release, % Inhibition: 64%
